Data as given in patent US20040033213A1, “Methods of modulating dendritic cells using adjuvants” (Corixa Corporation, priority 2002, published 2004).

Assays:
Assay type in all cases: cell-based
[1] = system: murine bone marrow derived DCs + D011.10 T cells; experiment: APC function of ova-pulsed, lipid A potentiated murine DCs co-cultured with D011.10 T cells (cytokine ELISA)
From the text: These antigen pulsed, lipid A potentiated cells were then washed thoroughly and titered against ova-specific T cell effector cells in vitro at an APC: T cell ratio titration of 1:1 out to as high as 1:512. The effector T cells in this in vitro assay were the antigen naive, but antigen (ova) specific, MHC restricted I-A^d splenic T cells from transgenic D011.10 mice.
D011.10 TCR-transgenic mice were used in these experiments as donors of antigen specific naive T cells. In their germline DNA these mice contain rearranged TCR-Vα and -Vβ genes that encode a T cell receptor (TCR) specific for the ovalbumin peptide 323-339 bound to IA^d (Balb/c) Class II MHC molecules. The transgenic ova peptide specific TCR can be detected with the KJ1-26 monoclonal antibody (mAb) that binds only to this particular TCR heterodimer. These cells provide a ready source of “normal” antigen (ova)-specific effector T cells. Effective antigen-mediated APC stimulation of those T cells is generally measured by ELISA quantitation of IL-2 or IFN-γ in the culture supernatants of DC+D011.10 T cells after 24-48 hours of incubation.
In one experiment, murine bone marrow derived DCs (6 day cultures) were pulsed with ova (50 μg/ml-5×10^5 cells/ml) and then potentiated overnight with LPS(R595), MPL® immunostimulant-S, RC-527, RC-529 or RC-544 prior to being cultured together with naive D011.10 effector T cells (FIGS. 1-7). The APC function of these DCs as measured by their ability to stimulate IL-2, IFN-γ IL-12 (p70) and IL-12 (p40) secretion in the DC+D011.10 co-culture systems was analyzed. All of the data shown in FIGS. 1-7 was developed from DCs maintained in lipid A induction cultures for either 15 or 38 hours prior to use in the T cell assay.

[2] = system: Human d7 Cultured Dendritic Cells; experiment: Flow cytometry phenotype analysis of human d7 cultured dendritic cells after 24 h stimulation; details: for HLA-DR MFI: 7 day DCs, 24 h stimulation
[3] = system: 6-7 day cultured human dendritic cells; experiment: ELISA of cytokines (IL-12 p40, IL-12 p70, TNF-α) in 22 h induction supernatants of cultured human dendritic cells; details: for IL-12 p40 / IL-12 p70 / TNF-α: 22 Hrs
From the text: Recent articles have described how human dendritic cells can be derived in vitro from CD14 positive monocyte precursors in peripheral blood. A “buffy coat” preparation can now be commonly obtained from a unit of normal human peripheral blood from a blood bank on request. The leukocyte fraction was harvested from this buffy coat preparation using standard ficoll centrifugation techniques. Subsequently, the leukocyte fraction was labeled with anti-CD 14 antibody coupled to magnetic microbeads. This preparation was then passed over a magnet (Miltanyi Biotech) and CD14 positive monocytes were collected. These CD14 positive monocyte precursors were then cultured for 5-7 days in vitro (5×10^5 cells/ml) with GM-CSF (20 ng/ml) for the duration of the culture. […] After the 24 hour in vitro stimulation culture, cells were washed twice and stained with a panel of monoclonal antibodies specific for different cell surface activation and co-receptor molecules found on mature, activated DCs.
Supernatants from DCs stimulated with LPS, MPL® immunostimulant-S, RC-527, RC-529, and RC-544 were collected and tested by ELISA analysis for cytokines.

[4] = system: cultured human DCs + autologous T cells
[5] = Exp. 091698, 24 h, LPS 10 ng/ml, others 100 ng/ml
[6] = Exp. 092398, 24 h, LPS 10 ng/ml, others 100 ng/ml
[7] = Exp. 093098, 24 h, LPS 10 ng/ml, others 100 ng/ml
[8] = Exp. # 092398, Day 7, LPS 10 ng/ml, others 100 ng/ml
[9] = Exp. # 093098, LPS 10 ng/ml, others 100 ng/ml

## CCCCCCCCCCCC(=O)OC(CCCCCCCCCCC)CC(=O)NC(CO)COC1OC(CO)C(OP(=O)(O)O)C(OC(=O)CC(CCCCCCCCCCC)OC(=O)CCCCCCCCCCC)C1NC(=O)CC(CCCCCCCCCCC)OC(=O)CCCCCCCCCCC (centres unmarked) [RC-544]
[1]; DCs prestimulated 15 hours, all T cell:APC ratios, FIG. 1
  IL-2 secretion (in words): comparable in their ability to stimulate IL-2 secretion
[1]; FIG. 5
  IL-12 (p70) in DC+D011.10 co-cultures (in words): overall weaker in their effect than LPS and RC-527
[1]; FIG. 6
  IL-12 (p70) at T cell:APC ratio 16:1 (in words): substantially higher stimulation effect than that induced by RC-529
[1]; FIG. 7
  release of IL-12 (p40) homodimer in DC+D011.10 co-cultures (in words): weaker in their effect than LPS and RC-527
[2]; [5]
  CD 1a % positive cells: 11.6%
  CD 1a MFI: 7.38
  CD 4 % positive cells: 70.6%
  CD 4 MFI: 2.17
  CD 14 % positive cells: 7.6%
  CD 35 % positive cells: 52.5%
  CD 35 MFI: 2.85
  CD 40 MFI: 31.8
  CD 44 MFI: 242
  CD 54 MFI: 26.1
  CD 62 L % positive cells: 11.6%
  CD 69 % positive cells: 10.8%
  CD 80 % positive cells: 99.2%
  CD 80 MFI: 5.99
  CD 83 % positive cells: 94.3%
  CD 83 MFI: 2.72
  CD 86 % positive cells: 99.7%
  CD 86 MFI: 15.3
  CD 95 % positive cells: 86.0%
  CD 95 MFI: 1.31
[2]; Exp. 091698, LPS 10 ng/ml, others 100 ng/ml
  HLA-DR MFI: 544-S 60.8
[2]; [6]
  CD 1a % positive cells: 75.6%
  CD 1a MFI: 4.44
  CD 4 % positive cells: 75.7%
  CD 4 MFI: 2.80
  CD 14 % positive cells: 5.0%
  CD 35 % positive cells: 59.1%
  CD 35 MFI: 2.98
  CD 40 MFI: 33.7
  CD 54 MFI: 32.7
  CD 62 L % positive cells: 7.1%
  CD 69 % positive cells: 10.1%
  CD 80 % positive cells: 99.1%
  CD 80 MFI: 7.56
  CD 83 % positive cells: 97.1%
  CD 83 MFI: 3.52
  CD 86 % positive cells: 99.9%
  CD 86 MFI: 26.4
  CD 95 % positive cells: 90.6%
  CD 95 MFI: 1.40
  αC5aR + GAR Alexa % positive cells: 45.9%
[2]; Exp. 092398, 24 h, LPS 10 ng/ml, others 100 ng/ml, values printed with a trailing +
  CD 44 MFI: 426+
[2]; Exp. 092398, 24 h, secondary reagent staining, LPS 10 ng/ml, others 100 ng/ml
  GAR-Alexa % positive cells: 3.9%
[2]; Exp. 092398, LPS 10 ng/ml, others 100 ng/ml
  HLA-DR MFI: 155.2
[2]; [7]
  CCR 6 % positive cells: 5.8%
  CD 1a % positive cells: 78.1%
  CD 1a MFI: 6.06
  CD 3 % positive cells: 26.8%
  CD 3 MFI: 3.86
  CD 4 % positive cells: 79.4%
  CD 4 MFI: 3.11
  CD 11c % positive cells: 91.0%
  CD 11c MFI: 6.23
  CD 14 % positive cells: 4.1%
  CD 40 MFI: 30.4
  CD 54 MFI: 36.8
  CD 62 L % positive cells: 4.0%
  CD 80 % positive cells: 99.0%
  CD 80 MFI: 10.9
  CD 83 % positive cells: 92.5%
  CD 83 MFI: 3.43
  CD 86 % positive cells: 99.8%
  CD 86 MFI: 26.3
  CD 123 % positive cells: 48.0%
  CD 123 MFI: 1.85
  αC5aR + Alexa 488 % positive cells: 43.3%
  αC5aR + Alexa 488 MFI: 9.41
[2]; Exp. 093098, LPS 10 ng/ml, others 100 ng/ml
  HLA-DR MFI: 134.3
[2]; RC-529 compared with RC-544, three experiments
  stimulating the expression of HLA-DR and co-stimulatory molecules (in words): very comparable effects
[2]; RC-544 compared with RC-529
  CD40 and CD83 expression (in words): slightly higher levels of CD40 and CD83 expression than did RC-529
[3]; Exp. # 091698, LPS 10 ng/ml, others 100 ng/ml
  IL-12 p40: 42,500 pg/mL/5 × 10^5 Cells
[3]; Exp. # 092398 (second line, Day7), LPS 10 ng/ml, others 100 ng/ml
  IL-12 p70: 175.2 pg/ml/5 × 10^5 Cells
[3]; [8]
  IL-12 p40: 80,500 pg/mL/5 × 10^5 Cells
  TNF-α: 5.650 pg/mL/5 × 10^5 Cells
[3]; Exp. # 092398 as printed (first line of section), LPS 10 ng/ml, others 100 ng/ml
  IL-12 p70: 8.8 pg/ml/5 × 10^5 Cells
[3]; Exp. # 092398 as printed (third line of section), LPS 10 ng/ml, others 100 ng/ml
  IL-12 p70: 55.7 pg/ml/5 × 10^5 Cells
[3]; [9]
  IL-12 p40: 62,000 pg/mL/5 × 10^5 Cells
  TNF-α: 880 pg/mL/5 × 10^5 Cells
[3]; all three experiments, LPS 10 ng/ml, others 100 ng/ml
  IL-12 (p40) expression (in words): also stimulated IL-12 (p40) responses
[3]; the one donor in which LPS and MPL-S gave a significant amount
  IL-12 (p70) (in words): high levels of IL-12 (p70)
[3]; three donors
  TNF-α secretion (in words): moderately lower than the effect due to RC-527
[4]
  T cell proliferation / DC activation, CPM 3H-thymidine response (in words): highest levels of DC activation compared to MPL® immunostimulant
